Earlier results in US20050107870A1, “Medical device with multiple coating layers” (priority 2003, published 2005).
Counter-ions that a name gives are not always drawn. Values belong to the compound of their own block, whether it stands above or below them.

What was measured:
[1] = hydrophilic magnetically responsive microspheres
cancer cells = conditions: exposed to low-level electromagnetic fields present in some North American homes

- incorporated concentration of therapeutic agent in microspheres [1]: up to 50 wt %
Structure (SMILES): COc1cccc2c1C(=O)c1c(O)c3c(c(O)c1C2=O)C[C@@](O)(C(=O)CO)C[C@@H]3O[C@H]1C[C@H](N)[C@H](O)[C@H](C)O1 [adriamycin, doxorubicin hydrochloride]

Structure (SMILES): CC/C(=C(\c1ccccc1)c1ccc(OCCN(C)C)cc1)c1ccccc1 [tamoxifen]
- ability to halt the proliferation of cancer cells (cancer cells): lost its ability to halt the proliferation of cancer cells

Structure (SMILES): COc1ccc2[nH]cc(CCNC(C)=O)c2c1 [melatonin]
- growth of breast cancer cells (breast cancer cells; cells exposed to 2 milligauss magnetic fields): inhibit the growth of breast cancer cells
- growth-inhibiting activity on breast cancer cells (breast cancer cells; cells in a 12 milliGauss field): essentially reased
